Measured values reported in patent US8329751B2, “Compounds having aryl-sulphonamidic structure useful as metalloproteases inhibitors” (Bracco Imaging S.p.A., priority 2007, dated 2012).

Legend:
[1] = target: MMP-13 (Homo sapiens, UniProt P45452); test: MMP inhibition assay, fluorogenic substrate FS-6, MMP-13; format: biochemical; details: substrate FS-6 2 μM; enzyme and inhibitor incubated 4 h at 25° C.
Experimental: (§1) As reported therein, the inhibitory activity of the compounds of the invention was evaluated on the known fluorogenic substrate (Mca-Lys-Pro-Leu-Gly-Leu-Dpa-Ala-Arg-NH2), shortly referred to as FS-6 (see, as a reference, U. Neumann, Analytical Biochem. 2004, 328, 166-173).
(§2) Recombinant human pro-MMP-2 was supplied by Prof. Gillian Murphy (Department of Oncology, University of Cambridge, UK), while pro-MMP-13 and pro-MMP-14 were purchased from Calbiochem. […] Pro-MMP-14 was activated with trypsin 5 μg/ml for 15 min at 37° C. followed by soybean trypsin inhibitor (SBTI) 23, μg/ml. For assay measurements, the inhibitor stock solutions (DMSO, 100 mM) were further diluted, at seven different concentrations (0.01 nM-100 μM) for each MMP in the fluorimetric assay buffer (FAB: Tris 50 mM, pH=7.5, NaCl 150 mM, CaCl2 10 mM, Brij 35 0.05% and DMSO 1%). Activated enzyme (final concentration 2.9 nM for MMP-2, 1 nM for MMP-14, 0.33 nM for MMP-13) and inhibitor solutions were incubated in the assay buffer for 4 h at 25° C. After the addition of 200 μM solution of the fluorogenic substrate Mca-Lys-Pro-Leu-Gly-Leu-Dpa-Ala-Arg-NH2 (Bachem) (see, for a reference, Neumann, U.; Kubota, H.; Frei, K.; Ganu, V.; Leppert, D. Anal. Biochem. 2004, 328, 166) for all of the enzymes in DMSO (final concentration 2 μM), the hydrolysis was monitored every 15 sec. for 20 min recording the increase in fluorescence (λex=325 nm, λem=395 nm) using a Molecular Device SpectraMax Gemini XS plate reader.
(§3) The assays were performed in triplicate, in a total volume of 200 μl per well, in 96-well microtitre plates (Corning, black, NBS). Control wells lack inhibitor. The MMP inhibition activity was expressed in relative fluorescent units (RFU). Percent of inhibition was calculated from control reactions without the inhibitor. IC50 was determined using the formula: Vi/Vo=1/(1+[I]/IC50), where V, is the initial velocity of substrate cleavage in the presence of the inhibitor at concentration [I] and Vo is the initial velocity in the absence of the inhibitor. Results were analyzed using SoftMax Pro software and GraFit software.

[2] = target: T1, MMP-14 (Homo sapiens, UniProt P50281); test: MMP inhibition assay, fluorogenic substrate FS-6, MMP-14; format: biochemical; details: substrate FS-6 2 μM; enzyme and inhibitor incubated 4 h at 25° C.
T1 construct: purchased Calbiochem
Experimental: as §1, §2, §3

[3] = target: T2, MMP-2 (Homo sapiens, UniProt P08253); test: MMP inhibition assay, fluorogenic substrate FS-6, MMP-2; format: biochemical; details: substrate FS-6 2 μM; enzyme and inhibitor incubated 4 h at 25° C.
T2 construct: supplied by Prof; Gillian Murphy (Department of Oncology, University of Cambridge, UK); not a commercial purchase
T2 sequence (P08253 110-660): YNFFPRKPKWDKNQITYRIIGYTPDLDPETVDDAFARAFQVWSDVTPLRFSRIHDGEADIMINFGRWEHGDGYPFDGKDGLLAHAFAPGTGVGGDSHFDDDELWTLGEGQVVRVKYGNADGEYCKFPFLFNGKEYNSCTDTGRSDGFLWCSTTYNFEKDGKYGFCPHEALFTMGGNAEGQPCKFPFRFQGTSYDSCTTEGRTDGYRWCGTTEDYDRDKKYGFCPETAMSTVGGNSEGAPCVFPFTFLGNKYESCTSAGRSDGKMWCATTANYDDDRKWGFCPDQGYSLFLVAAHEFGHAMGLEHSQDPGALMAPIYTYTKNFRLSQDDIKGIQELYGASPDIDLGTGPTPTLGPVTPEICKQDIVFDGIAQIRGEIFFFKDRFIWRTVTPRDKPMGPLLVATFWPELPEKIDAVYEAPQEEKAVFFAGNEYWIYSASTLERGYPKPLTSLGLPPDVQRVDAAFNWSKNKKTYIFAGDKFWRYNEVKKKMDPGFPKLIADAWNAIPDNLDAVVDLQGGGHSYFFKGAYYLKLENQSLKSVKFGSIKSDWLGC
Experimental: as §1, §2, §3

[4] = system: HUVEC; test: HUVEC growth assay (crystal violet); format: cell-based, human
Experimental: (§4) Compound (2), as a representative compound of the invention, was tested in an in vivo assay to evaluate its inhibitory activity on cancer cells. In particular, HUVEC cultures were purchased from Cascade Biologics (Portland, Oreg.) and cultured in gelatin-coated flasks using M199, 10% FCS (Fetal Calf Serum, Seromed, Milan, Italy) supplemented with FGF (Fibroblast Growth Factor, PeproTech, Inc., Rocky Hill, N.J.) (1 μg aFGF (acidic Fibroblast Growth Factor)+1 μg bFGF (basic Fibroblast Growth Factor)/100 ml medium), EGF (Epidermal Growth Factor) (1 μg/100 ml medium), heparin (10 mg/100 ml medium), (ICN Pharmaceuticals, Inc., Casta Mesa, Calif.), hydrocortisone (Sigma Chemical Co.) (0.1 mg/100 ml medium).
At day 0 cells were plated in 96 microwell plates at 1000 cells in 200 μl of complete culture medium. The inhibitor was added to the cells at different concentrations (10, 100 μM). HUVEC were quantified at 24, 48 and 72 hrs. Indirect optical density (OD) quantification was obtained fixing/staining the cells for 20 minutes with a crystal violet solution [see, for a reference, Fassina, G. et al., Clin Cancer Res, (2004) 10, 4865-73].

[5] = system: HUVEC; test: pro-apoptotic activity on HUVEC; format: cell-based, human
[6] = system: HUVEC; test: HUVEC chemoinvasion in Boyden chambers; format: cell-based, human; details: 100 μM, 5 hours
Experimental: as §4, with “N.J.) (1 μg aFGF” left out, “[…].),” for “Casta Mesa, Calif.),”, “medium). HUVEC invasion was assessed in Boyden chambers (Costar) using serum-free fibroblast conditioned medium (FB-CM) as chemoattractants. Cells were treated with the inhibitor at the indicated doses and incubated at 37° C. for 5 hours in humidified atmosphere. Cell invasion was assessed by densitometric scanning of whole filter surface. Each test was performed in triplicate and repeated three times [see, for a reference, Albini, A., et al., Int. J. Dev. Biol., (2004), 48, 563-71].” for “medium).”

Structure (SMILES) | IC50 [1] [nM] | IC50 [2] [nM] | IC50 [3] [nM] | cell growth inhibition as compared to untreated controls ([4]; 10 and 100 μM, 24, 48 and 72 hrs) | inhibition at 100 µM ([4]; Homo sapiens, 100 μM, starting from 48 hours of treatment, read-out: cell growth inhibition) [%] | induction of programmed cell death ([5]; at 48 hours) | pro-apoptotic activity ([5]; high dose (100 μM)) | inhibitory activity on endothelial cell migration through a reconstituted basement membrane [6]
CC(C)ON([C@H](CCNC(=O)c1ccccc1)C(=O)NO)S(=O)(=O)c1ccc(-c2ccccc2)cc1 [Compound 1b, (R)—N-(4-(hydroxyamino)-3-(N-isopropoxybiphenyl-4-ylsulfonamido)-4-oxobutyl)benzamide] | 4.6 ± 0.1 | 94 | 1.48 ± 0.17 |  |  |  |  | 
CC(C)ON([C@H](CCNS(C)(=O)=O)C(=O)NO)S(=O)(=O)c1ccc(-c2ccccc2)cc1 [Compound 1c, (R)—N-hydroxy-2-(N-isopropoxybiphenyl-4-ylsulfonamido)-4-(methylsulfonamido)butanamide] | 2.2 ± 0.3 | 95.5 ± 4.5 | 0.98 ± 0.12 |  |  |  |  | 
CC(C)ON([C@H](CCNC(=O)OCc1ccccc1)C(=O)NO)S(=O)(=O)c1ccc(-c2ccccc2)cc1 [Reference Compound (5b), reference compound] | 4.4 ± 0.5 | 240 ± 19 | 8.4 ± 0.1 |  |  |  |  | 
COc1ccc(-c2ccc(S(=O)(=O)N(OC(C)C)[C@H](CCN3C(=O)c4ccccc4C3=O)C(=O)NO)cc2)cc1 [Compound 2, (R)-4-(1,3-dioxoisoindolin-2-yl)-N-hydroxy-2-(N-isopropoxy-4′-methoxybiphenyl-4-ylsulfonamido)butanamide] | 0.19 ± 0.01 | 3.9 ± 0.18 | 0.67 ± 0.06 | time and dose dependent cell growth inhibition | 100 | ability to induce programmed cell death | some pro-apoptotic activity | significant inhibitory activity
COc1ccc(-c2ccc(S(=O)(=O)N(OC(C)C)[C@H](CCNC(C)=O)C(=O)NO)cc2)cc1 [Compound 1f, (R)-4-acetamido-N-hydroxy-2-(N-isopropoxy-4′-methoxybiphenyl-4-ylsulfonamido)butanamide] | 0.58 ± 0.04 | 23.5 ± 2.2 | 0.13 ± 0.03 |  |  |  |  | 
COc1ccc(-c2ccc(S(=O)(=O)N(OC(C)C)[C@H](CCNC(=O)Cc3ccccc3)C(=O)NO)cc2)cc1 [Compound 1g, (R)—N-hydroxy-2-(N-isopropoxy-4′-methoxybiphenyl-4-ylsulfonamido)-4-(2-phenylacetamido)butanamide] | 0.25 ± 0.02 | 24.7 ± 2.2 | 0.37 ± 0.06 |  |  |  |  | 
COc1ccc(-c2ccc(S(=O)(=O)N(OCCOCCN3CCNCC3)[C@H](CCNC(=O)OCc3ccccc3)C(=O)NO)cc2)cc1 [Compound 1j] | 0.2 ± 0.01 | 27 ± 1 | 0.3 ± 0.03 |  |  |  |  | 
CC(C)ON([C@H](CCNC(=O)Cc1ccccc1)C(=O)NO)S(=O)(=O)c1ccc(-c2ccccc2)cc1 [Compound 1e, (R)—N-hydroxy-2-(N-isopropoxybiphenyl-4-ylsulfonamido)-4-(2-phenylacetamido)butanamide] | 1.4 ± 0.1 | 80.7 ± 5.4 | 1.43 ± 0.1 |  |  |  |  | 
CC(=O)NCC[C@H](C(=O)NO)N(OC(C)C)S(=O)(=O)c1ccc(-c2ccccc2)cc1 [Compound 1d, (R)-4-acetamido-N-hydroxy-2-(N-isopropoxybiphenyl-4-ylsulfonamido)butanamide] | 0.68 ± 0.1 | 41.1 ± 1.16 | 0.33 ± 0.02 |  |  |  |  | 
